From patent US6590127B1, “Process for the preparation of pharmacologically active α-asarone from toxic β-asarone rich acorus calamus oil” (priority 2002, dated 2003)

Key:
[1] = Toxicity of 2,4,5-trimethoxyphenylpropane compared with β-asarone
[2] = tested on: mice; settings: cited from earlier work
[3] = tested on: rats; settings: cited from earlier work
[4] = tested on: mice fed with a high cholesterol diet; settings: oral dose of 80 mg/kg; cited from earlier work
[5] = tested on: animals; settings: cited from earlier work
[6] = tested on: human lymphocytes; settings: human lymphocytes in-vitro after metabolic activation; cited from earlier work

For `CCCc1cc(OC)c(OC)cc1OC` [2,4,5-trimethoxyphenylpropane, 1-propyl-2,4,5-trimethoxybenzene], the “toxicity relative to β-asarone” value [1] was “five times less toxic”.
In the case of `C/C=C/c1cc(OC)c(OC)cc1OC` [α-asarone, trans-2,4,5-trimethoxyphenyl-1-propene], the toxicity [2] is given as “no toxic effect is observed”, the toxicity [3] is given as “no toxic effect is observed” and the decrease of cholesterol [4] is given as 49.6%. The decrease of triglycerides [4] was 83.7% and the “high density lipoprotein (HDL)-cholesterol” value [4] was “increased”.
In the case of `C/C=C\c1cc(OC)c(OC)cc1OC` [β-asarone], the tumor induction ([5]; after oral administration) is listed as “induce tumors in the duodenal region”, the carcinogenicity ([5]; animals) is listed as “carcinogenic” and the chromosome damaging effect [6] is listed as “chromosome damaging effect”.
